Values of other authors, collected in PubChem BioAssay AID1259409 (Chemical Carcinogenesis Research Information System (CCRIS), 2018).

Tested on: rodent chemically induced tumor inhibition, incidence and multiplicity
Assay: CCRIS tumor inhibitor studies
Details: Carcinogen: AZOXYMETHANE, 25843-45-2, Dose [Inhibitor]: 0, Route [Inhibitor]: ORAL, Species: RAT, Strain/Sex: F344/MALE, Dose [Carcinogen]: 15 MG/KG BW 1/WK FOR 3 WK, Promoter: NONE USED

**Q.** For O=C(O)c1ccc(O)c(O)c1, which “tumour outcome (control, treated, inhibition, significance)” value (500 PPM IN DIET FOR 4 WK BEGINNING 1 WK PRIOR TO CARCINOGEN TREATMENT (STUDY DURATION: 32 WK), Target Tissue: Type of Lesion: COLON: ADENOCARCINOMA) is on record?
**A.** 75%, 55%, 27%, not significant

**Q.** And the “tumour outcome (control, treated, inhibition, significance)” value (500 PPM IN DIET FOR 4 WK BEGINNING 1 WK PRIOR TO CARCINOGEN TREATMENT (STUDY DURATION: 32 WK), Target Tissue: Type of Lesion: COLON: ADENOMA)?
**A.** 10%, 5%, 50%, not significant

**Q.** And the “tumour outcome (control, treated, inhibition, significance)” value (500 PPM IN DIET FOR 4 WK BEGINNING 1 WK PRIOR TO CARCINOGEN TREATMENT (STUDY DURATION: 32 WK), Target Tissue: Type of Lesion: LARGE INTESTINE: ADENOCARCINOMA)?
**A.** 15/20 (75%), 11/20 (55%), 27%, not significant

**Q.** What about the “tumour outcome (control, treated, inhibition, significance)” value (500 PPM IN DIET FOR 4 WK BEGINNING 1 WK PRIOR TO CARCINOGEN TREATMENT (STUDY DURATION: 32 WK), Target Tissue: Type of Lesion: LARGE INTESTINE: ADENOMA) of the same compound?
**A.** 2/20 (10%), 1/20 (5%), 50%, not significant

**Q.** And the “tumour outcome (control, treated, inhibition, significance)” value (500 PPM IN DIET FOR 4 WK BEGINNING 1 WK PRIOR TO CARCINOGEN TREATMENT (STUDY DURATION: 32 WK), Target Tissue: Type of Lesion: SMALL INTESTINE: ADENOCARCINOMA)?
**A.** 6/20 (30%), 6/20 (30%), 0%, not significant

**Q.** And the “tumour outcome (control, treated, inhibition, significance)” value (500 PPM IN DIET FOR 4 WK BEGINNING 1 WK PRIOR TO CARCINOGEN TREATMENT (STUDY DURATION: 32 WK), Target Tissue: Type of Lesion: SMALL INTESTINE: ADENOMA)?
**A.** 1/20 (5%), 0/20 (0%), 100%, not significant

**Q.** What about the “tumour outcome (control, treated, inhibition, significance)” value (500 PPM IN DIET FOR 28 WK BEGINNING 1 WK POST CARCINOGEN TREATMENT (STUDY DURATION: 32 WK), Target Tissue: Type of Lesion: COLON: ADENOCARCINOMA) of the same compound?
**A.** 75%, 40%, 47%, not significant

**Q.** And the “tumour outcome (control, treated, inhibition, significance)” value (500 PPM IN DIET FOR 28 WK BEGINNING 1 WK POST CARCINOGEN TREATMENT (STUDY DURATION: 32 WK), Target Tissue: Type of Lesion: LARGE INTESTINE: ADENOCARCINOMA)?
**A.** 15/20 (75%), 8/20 (40%), 47%, not significant

**Q.** And the “tumour outcome (control, treated, inhibition, significance)” value (500 PPM IN DIET FOR 28 WK BEGINNING 1 WK POST CARCINOGEN TREATMENT (STUDY DURATION: 32 WK), Target Tissue: Type of Lesion: LARGE INTESTINE: ADENOMA)?
**A.** 2/20 (10%), 3/20 (15%), -50%, not significant

**Q.** What about the “tumour outcome (control, treated, inhibition, significance)” value (500 PPM IN DIET FOR 28 WK BEGINNING 1 WK POST CARCINOGEN TREATMENT (STUDY DURATION: 32 WK), Target Tissue: Type of Lesion: SMALL INTESTINE: ADENOCARCINOMA) of the same compound?
**A.** 6/20 (30%), 1/20 (5%), 83%, not significant

**Q.** And the “tumour outcome (control, treated, inhibition, significance)” value (500 PPM IN DIET FOR 28 WK BEGINNING 1 WK POST CARCINOGEN TREATMENT (STUDY DURATION: 32 WK), Target Tissue: Type of Lesion: SMALL INTESTINE: ADENOMA)?
**A.** 1/20 (5%), 0/20 (0%), 100%, not significant

**Q.** And the “tumour outcome (control, treated, inhibition, significance)” value (1000 PPM IN DIET FOR 4 WK BEGINNING 1 WK PRIOR TO CARCINOGEN TREATMENT (STUDY DURATION: 32 WK), Target Tissue: Type of Lesion: COLON: ADENOCARCINOMA)?
**A.** 75%, 30%, 60%, p<0.05

**Q.** And the “tumour outcome (control, treated, inhibition, significance)” value (1000 PPM IN DIET FOR 4 WK BEGINNING 1 WK PRIOR TO CARCINOGEN TREATMENT (STUDY DURATION: 32 WK), Target Tissue: Type of Lesion: COLON: ADENOMA)?
**A.** 10%, 9%, 10%, not significant

**Q.** And the “tumour outcome (control, treated, inhibition, significance)” value (1000 PPM IN DIET FOR 4 WK BEGINNING 1 WK PRIOR TO CARCINOGEN TREATMENT (STUDY DURATION: 32 WK), Target Tissue: Type of Lesion: LARGE INTESTINE: ADENOCARCINOMA)?
**A.** 15/20 (75%), 7/23 (30%), 60%, p<0.006

**Q.** And the “tumour outcome (control, treated, inhibition, significance)” value (1000 PPM IN DIET FOR 4 WK BEGINNING 1 WK PRIOR TO CARCINOGEN TREATMENT (STUDY DURATION: 32 WK), Target Tissue: Type of Lesion: LARGE INTESTINE: ADENOMA)?
**A.** 2/20 (10%), 2/23 (9%), 10%, not significant

**Q.** What about the “tumour outcome (control, treated, inhibition, significance)” value (1000 PPM IN DIET FOR 4 WK BEGINNING 1 WK PRIOR TO CARCINOGEN TREATMENT (STUDY DURATION: 32 WK), Target Tissue: Type of Lesion: SMALL INTESTINE: ADENOCARCINOMA) of the same compound?
**A.** 6/20 (30%), 8/23 (35%), -17%, not significant

**Q.** And the “tumour outcome (control, treated, inhibition, significance)” value (1000 PPM IN DIET FOR 4 WK BEGINNING 1 WK PRIOR TO CARCINOGEN TREATMENT (STUDY DURATION: 32 WK), Target Tissue: Type of Lesion: SMALL INTESTINE: ADENOMA)?
**A.** 1/20 (5%), 1/23 (4%), 20%, not significant

**Q.** What about the “tumour outcome (control, treated, inhibition, significance)” value (1000 PPM IN DIET FOR 28 WK BEGINNING 1 WK POST CARCINOGEN TREATMENT (STUDY DURATION: 32 WK), Target Tissue: Type of Lesion: COLON: ADENOCARCINOMA) of the same compound?
**A.** 75%, 22%, 71%, p<0.05

**Q.** What about the “tumour outcome (control, treated, inhibition, significance)” value (1000 PPM IN DIET FOR 28 WK BEGINNING 1 WK POST CARCINOGEN TREATMENT (STUDY DURATION: 32 WK), Target Tissue: Type of Lesion: COLON: ADENOMA) of the same compound?
**A.** 10%, 9%, 10%, not significant

**Q.** And the “tumour outcome (control, treated, inhibition, significance)” value (1000 PPM IN DIET FOR 28 WK BEGINNING 1 WK POST CARCINOGEN TREATMENT (STUDY DURATION: 32 WK), Target Tissue: Type of Lesion: LARGE INTESTINE: ADENOCARCINOMA)?
**A.** 15/20 (75%), 5/23 (22%), 71%, p<0.008
